Measurements as given in ChEMBL document CHEMBL3600382, “A-ring substituted 17β-arylsulfonamides of 17β-aminoestra-1,3,5(10)-trien-3-ol as highly potent reversible inhibitors of steroid sulfatase” (Bioorg Med Chem, 2015).

System: MCF7
Assay: Cytotoxicity against human MCF7 cells assessed as inhibition of cell growth at 10 uM after 96 hrs by Cell Titer 96 Aqueous One solution Cell proliferation assay relative to control
Type: functional
Conditions: MCF7, 96 h, read-out: GI

C[C@]12CC[C@@H]3c4ccc(O)cc4CC[C@H]3[C@@H]1CC[C@@]2(O)Cc1ccccc1
inhibition of growth at 10 µM: 51%
